From ChEMBL document CHEMBL5338710, “Discovery of dearomatized isoprenylated acylphloroglucinols with colon tumor suppressive activities in mice via inhibiting NFκB-FAT1-PDCD4 signaling activation” (Eur J Med Chem, 2022)
The source made the active and inactive calls. The calls are words filed in the database; no cut-off is given here.

Columns and labels:
HCT-116 [1] = assay: Antiproliferative activity against human HCT-116 cells assessed as reduction in cell viability at 5 uM measured after 48 hrs by MTT assay; assay type: functional, cell-based
[2] = Antiproliferative activity against human PBMC cells assessed as reduction in cell viability measured after 48 hrs by MTT assay; assay type: toxicity, cell-based
HCT-116 [3] = assay: Antiproliferative activity against human HCT-116 cells assessed as reduction in cell viability measured after 48 hrs by MTT assay; assay type: functional, cell-based; conditions: HCT-116, 48 h
[4] = molecular target: Nuclear factor NF-kappa-B complex (Homo sapiens) (UniProt Q00653+P19838+Q04206); assay: Inhibition of TNFalpha induced-NFkB phosphorylation in human HCT-116 cells at 1 to 5 uM pretreated for 24 hrs followed by TNFalpha induction and measured after 24 hrs by Western blot analysis; assay type: cell-based; conditions: dose 1-5 µM, time 48.0 hrs
Nuclear factor NF-kappa-B complex (Homo sapiens), sequence (P19838 whole entry, looked up): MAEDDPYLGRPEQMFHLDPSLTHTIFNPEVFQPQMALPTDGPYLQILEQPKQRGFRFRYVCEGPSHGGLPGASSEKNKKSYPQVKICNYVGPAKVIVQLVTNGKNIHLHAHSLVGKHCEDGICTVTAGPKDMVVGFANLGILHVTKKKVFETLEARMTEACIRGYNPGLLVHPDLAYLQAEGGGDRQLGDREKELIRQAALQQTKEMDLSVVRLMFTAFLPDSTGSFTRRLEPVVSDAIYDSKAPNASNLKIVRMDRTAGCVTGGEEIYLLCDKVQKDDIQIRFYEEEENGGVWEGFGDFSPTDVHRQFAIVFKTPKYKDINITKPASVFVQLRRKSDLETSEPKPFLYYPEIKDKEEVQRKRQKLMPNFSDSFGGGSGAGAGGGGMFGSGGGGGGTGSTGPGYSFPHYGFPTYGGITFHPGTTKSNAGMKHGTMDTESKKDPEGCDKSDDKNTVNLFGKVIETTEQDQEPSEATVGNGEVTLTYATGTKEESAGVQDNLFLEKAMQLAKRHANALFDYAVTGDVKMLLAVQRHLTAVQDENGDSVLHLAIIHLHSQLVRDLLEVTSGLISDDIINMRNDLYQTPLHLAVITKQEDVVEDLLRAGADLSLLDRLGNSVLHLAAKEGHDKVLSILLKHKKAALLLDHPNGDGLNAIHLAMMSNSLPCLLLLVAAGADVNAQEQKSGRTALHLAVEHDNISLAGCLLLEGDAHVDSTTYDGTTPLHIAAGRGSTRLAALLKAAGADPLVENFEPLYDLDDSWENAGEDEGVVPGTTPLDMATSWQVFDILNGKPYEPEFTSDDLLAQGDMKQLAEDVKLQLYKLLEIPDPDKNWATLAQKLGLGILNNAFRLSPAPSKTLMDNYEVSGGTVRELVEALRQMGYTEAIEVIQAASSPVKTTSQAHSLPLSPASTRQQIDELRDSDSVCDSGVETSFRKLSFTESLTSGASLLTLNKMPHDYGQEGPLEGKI
Nuclear factor NF-kappa-B complex (Homo sapiens), sequence (Q00653 whole entry, looked up): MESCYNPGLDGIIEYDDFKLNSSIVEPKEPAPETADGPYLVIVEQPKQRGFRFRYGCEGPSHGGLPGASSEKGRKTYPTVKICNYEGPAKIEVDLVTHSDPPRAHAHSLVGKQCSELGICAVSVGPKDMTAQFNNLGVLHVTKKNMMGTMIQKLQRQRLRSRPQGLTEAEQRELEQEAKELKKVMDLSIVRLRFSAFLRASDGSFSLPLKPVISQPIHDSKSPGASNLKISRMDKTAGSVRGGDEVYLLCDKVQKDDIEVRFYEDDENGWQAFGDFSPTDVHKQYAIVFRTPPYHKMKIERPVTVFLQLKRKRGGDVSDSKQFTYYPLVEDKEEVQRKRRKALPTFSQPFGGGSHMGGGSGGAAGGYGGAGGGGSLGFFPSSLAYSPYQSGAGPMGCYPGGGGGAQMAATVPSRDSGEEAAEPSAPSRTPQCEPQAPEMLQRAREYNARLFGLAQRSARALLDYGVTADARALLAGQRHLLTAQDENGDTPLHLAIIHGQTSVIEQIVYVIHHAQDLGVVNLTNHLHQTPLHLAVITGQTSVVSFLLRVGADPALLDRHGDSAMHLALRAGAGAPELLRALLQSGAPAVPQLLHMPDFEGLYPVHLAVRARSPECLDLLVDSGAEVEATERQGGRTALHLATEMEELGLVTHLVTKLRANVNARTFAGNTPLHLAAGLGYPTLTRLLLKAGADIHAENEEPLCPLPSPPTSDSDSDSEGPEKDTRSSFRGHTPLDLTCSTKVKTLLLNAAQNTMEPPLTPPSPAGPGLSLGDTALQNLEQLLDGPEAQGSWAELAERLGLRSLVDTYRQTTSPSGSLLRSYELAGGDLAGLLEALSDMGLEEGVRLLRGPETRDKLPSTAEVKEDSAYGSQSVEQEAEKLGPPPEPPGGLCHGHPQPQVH
Nuclear factor NF-kappa-B complex (Homo sapiens), sequence (Q04206 whole entry, looked up): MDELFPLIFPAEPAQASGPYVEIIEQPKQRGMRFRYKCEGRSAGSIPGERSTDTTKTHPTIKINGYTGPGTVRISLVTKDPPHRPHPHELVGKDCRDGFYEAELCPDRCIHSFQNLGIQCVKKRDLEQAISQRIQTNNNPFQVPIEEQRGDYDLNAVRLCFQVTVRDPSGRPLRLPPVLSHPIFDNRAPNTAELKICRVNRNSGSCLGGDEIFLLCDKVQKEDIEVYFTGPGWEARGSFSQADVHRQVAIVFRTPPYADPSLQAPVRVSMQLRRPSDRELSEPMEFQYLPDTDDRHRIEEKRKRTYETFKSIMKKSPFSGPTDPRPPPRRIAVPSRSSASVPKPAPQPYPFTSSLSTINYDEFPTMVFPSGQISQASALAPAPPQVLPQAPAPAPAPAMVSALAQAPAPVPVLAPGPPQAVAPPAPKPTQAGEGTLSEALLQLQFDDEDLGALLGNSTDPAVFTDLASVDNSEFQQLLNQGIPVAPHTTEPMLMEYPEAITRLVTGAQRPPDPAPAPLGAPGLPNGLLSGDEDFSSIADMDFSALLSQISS

HCT-116 [5] = assay: Antitumor activity against human HCT-116 cells xenografted in nude mouse assessed as reduction in tumor weight at 3 to 4 mg/kg, iv measured for 23 days in presence of oxaliplatin; assay type: functional, organism-based; conditions: dose 3-4 mg/kg, time 23.0 day
HCT-116 [6] = assay: Antitumor activity against human HCT-116 cells xenografted in nude mouse assessed as decrease in tumor weight at 25 mg/kg, iv measured upto 23 days in presence of oxaliplatin; assay type: functional, organism-based; conditions: time <= 23.0 day
HCT-116 [7] = assay: Antitumor activity against human HCT-116 cells xenografted in nude mouse assessed as decrease in tumor volume at 25 mg/kg, iv measured upto 23 days in presence of oxaliplatin; assay type: functional, organism-based; conditions: time <= 23.0 day
HCT-116 [8] = assay: Antitumor activity against human HCT-116 cells xenografted in nude mouse assessed as decrease in tumor volume at 3 to 4 mg/kg, iv measured for 23 days in presence of oxaliplatin; assay type: functional, organism-based; conditions: dose 3-4 mg/kg, time 23.0 day

SMILES | Activity (HCT-116 [1]) | further results
C=C(C)[C@@H]1CC[C@@](C)(O)[C@H]1CC1=C(O)C(C)(CC=C(C)C)C(=O)C(C(=O)C(C)CC)=C1O (some centres undefined) | Active | IC50 at 48 h [2]: > 100 µM; IC50 (HCT-116 [3]): 5.63 µM
CC(C)=CC[C@@]12C(=O)C(C(=O)C(C)C)=C(O)C(C)=C1O[C@]1(C)CCC(C(C)C)=C[C@H]21 | Active | 
CC(C)=CC[C@@]1(C)C(=O)C(C(=O)C(C)C)=C(O)C([C@H]2C[C@]3(C(C)(C)O)CC[C@@]2(C)O3)=C1O | Active | 
C=C(C)[C@@H]1CC[C@@](C)(O)[C@H]1CC1=C(O)C(CC=C(C)C)(CC=C(C)C)C(=O)C(C(=O)c2ccccc2)=C1O | Active | 
C=C(C)[C@@H]1CC[C@@](C)(O)[C@H]1CC1=C2O[C@H](C(C)(C)O)C[C@]2(C)C(=O)C(C(=O)C(C)CC)=C1O (some centres undefined) | Active | 
CC(C)=CCC1(CC=C(C)C)C(=O)C(C(=O)c2ccccc2)=C(O)C([C@H]2C=C(C(C)C)CC[C@@]2(C)O)=C1O | Active | 
CC(C)=CC[C@]1(C)C(=O)C(C(=O)C(C)C)=C(O)C2=C1O[C@]1(C)CC[C@]3(C(C)C)O[C@]13[C@H]2O | Active | 
CC(C)=CCC1(CC=C(C)C)C(=O)C(C(=O)C(C)C)=C(O)C([C@H]2C[C@]3(C(C)(C)O)CC[C@@]2(C)O3)=C1O | Active | 
C=C(C)[C@@H]1CC[C@@](C)(O)[C@H]1CC1=C(O)C(CC=C(C)C)(CC=C(C)C)C(=O)C(C(=O)C(C)CC)=C1O (some centres undefined) | Active | IC50 at 48 h [2]: 10 µM; IC50 (HCT-116 [3]): 2.46 µM
C=C(C)[C@@H]1CC[C@@]2(C)OC3=C(CC12)C(O)=C(C(=O)C(C)C)C(=O)C3(C)CC=C(C)C (some centres undefined) | Active | 
COC[C@@H]1C2=C(O)C(CC=C(C)C)(CC=C(C)C)C(=O)C(C(=O)C(C)C)=C2OC1(C)C | Active | 
C=C(C)[C@H]1CC[C@@](C)(O)[C@@H](C2=C(O)[C@@](C)(CC=C(C)C)C(=O)C(C(=O)C(C)CC)=C2O)C1 (some centres undefined) | Active | IC50 at 48 h [2]: 19.6 µM; IC50 (HCT-116 [3]): 2.32 µM
CC(C)=CCC1(CC=C(C)C)C(=O)/C(=C(/O)c2ccccc2)C2=C(C1O)[C@H]1C=C(C(C)C)CC[C@@]1(C)O2 (some centres undefined) | Active | 
C=C(C)[C@@H]1CC[C@@](C)(O)[C@H]1CC1=C2O[C@H](C(C)(C)O)C[C@]2(CC=C(C)C)C(=O)C(C(=O)c2ccccc2)=C1O | Active | 
CCC(C)C(=O)C1=C(O)C2=C(OC(C)(C)C3CC[C@@](C)(O)[C@H]3C2)[C@](C)(CC=C(C)C)C1=O (some centres undefined) | Active | 
C=C(C)[C@@H]1CC[C@](C)(O)[C@H]1CC1=C2O[C@H](C(C)(C)O)C[C@]2(CC=C(C)C)C(=O)C(C(=O)c2ccccc2)=C1O | Active | 

SMILES | Activity (HCT-116 [1]) | further results
CC(C)=CC[C@]1(C)C(=O)C(C(=O)C(C)C)=C(O)C2=C1OC(C)(C)C1CC[C@@](C)(O)[C@H]1C2 (some centres undefined) | Active | 
CC(C)=CC[C@@]1(C)C(=O)C(C(=O)C(C)C)=C(O)C2=C1O[C@]1(C)CC[C@@]3(C(C)C)O[C@@]13[C@H]2O | Active | 
C=C(C)[C@H]1CC[C@@](C)(O)[C@@H](C2=C(O)C(CC=C(C)C)(CC=C(C)C)C(=O)C(C(=O)C(C)C)=C2O)C1 |  | inhibition [4]: inactive
CC(C)=CC[C@@]12C[C@@H](C(C)(C)O)OC1=C(CC1[C@H]3CC[C@]1(C)OC3(C)C)C(O)=C(C(=O)C(C)C)C2=O (some centres undefined) | Active | 
C=C(C)[C@H]1CC[C@@](C)(O)[C@@H](C2=C(O)C(CC=C(C)C)(CC=C(C)C)C(=O)C(C(=O)c3ccccc3)=C2O)C1 | Active | IC50 at 48 h [2]: 24 µM; IC50 (HCT-116 [3]): 3.67 µM
CC(C)=CCC1(C)C(=O)C(C(=O)C(C)C)=C(O)C([C@@H]2C[C@H]3CC[C@]2(C)OC3(C)C)=C1O (some centres undefined) | Active | 
C=C(C)[C@H]1CC[C@@]2(C)OC3=C(CC12)C(O)=C(C(=O)C(C)CC)C(=O)C3(C)CC=C(C)C (some centres undefined) | Active | 
C=C(C)[C@@H]1CC[C@@](C)(O)[C@H]1CC1=C2O[C@H](C(C)(C)O)C[C@]2(CC=C(C)C)C(=O)C(C(=O)C(C)C)=C1O | Active | 
CCC(C)C(=O)C1=C(O)C2=C(OC(C)(C)[C@@H]3CC[C@@](C)(O)[C@@H]3C2)[C@](C)(CC=C(C)C)C1=O (some centres undefined) | Active | 
CC(C)=CCC1(CC=C(C)C)C(=O)C(C(=O)C(C)C)=C(O)C2=C1OC(C)(C)[C@@H]1CC[C@@](C)(O)[C@@H]1C2 | Active | 
CC(C)=CCC1(CC=C(C)C)C(=O)C(C(=O)C(C)C)=C(O)C2=C1O[C@]1(C)CCC3(C(C)C)OC31[C@H]2O (some centres undefined) | Active | 
C=C(C)[C@@H]1CC[C@@]2(C)OC3=C(CC12)C(O)=C(C(=O)c1ccccc1)C(=O)C3(CC=C(C)C)CC=C(C)C (some centres undefined) | Active | 
O=c1[nH]cc(F)c(=O)[nH]1 |  | Activity (HCT-116 [5]): Active; Activity (HCT-116 [6]): Active; Activity (HCT-116 [7]): Active; Activity (HCT-116 [8]): Active
CC(C)=CCC1(CC=C(C)C)C(=O)C(C(=O)c2ccccc2)=C(O)C([C@@H]2C[C@H]3CC[C@]2(C)OC3(C)C)=C1O | Active | 
C=C(C)[C@H]1CC[C@@](C)(O)[C@@H](C2=C(O)[C@](C)(CC=C(C)C)C(=O)C(C(=O)C(C)C)=C2O)C1 | Active | IC50 at 48 h [2]: 14.4 µM; IC50 (HCT-116 [3]): 2.63 µM
